From paper PMC8861050, “Design, synthesis and evaluation of novel 2-oxoindoline-based acetohydrazides as antitumor agents” (Scientific Reports, 2022)

Key:
[1] = Cytotoxicity on normal mesenchymal stem cells; format: cell-based; settings: human bone marrow-derived mesenchymal stem cells; mean ± SEM; read-out: Cytotoxicity (IC50) MSCs
Method: Overally, 5-fluorinated compounds (4i–p and 5d–f) were slightly more cytotoxic than non-fluorinated ones (4a–h, 5a–c). For compounds in series 4a–p, it was observed that, electron-releasing substituents (–OCH3, OH) were generally better than electron-withdrawing groups (–Cl) for cytotoxicity. Especially, compounds with 2-OH substituents produced the best cytotoxicity. The addition of either 4-OCH3 or 3-allyl groups further enhanced cytotoxicity of the related compounds (4g, 4h and 4o, 4p).

SW620 (colon cancer) = experiment: SRB cytotoxicity assay, SW620; format: cell-based; settings: Homo sapiens, SW-620, 48 h incubation, mean ± SEM of 3 independent experiments
Excerpt: (§1) Three human cancer cell lines: colon cancer (SW620), prostate cancer (PC3), and lung cancer (NCI-H23) were used for sceening the cytotoxicity of the compounds. The cancer cells were purchased from American Type Culture Collection (Manassas, VA, USA). Other reagents/media for cell culture were obtained from GIBCO (Grand Island, New York, USA). The testing cancer cells were culture in Dulbecco’s Modified Eagle Medium until confluence. Then, they were trypsinized and suspended at the level of 3 × 10^4 cells/mL of cell culture medium. On day 0, cancer cells were seeded at a volume of 180 µL/well of 96-well plates and incubated for 24 h at 37 °C in a 5% CO2 incubator. On day 1, 20 µL of various concentrations of testing compounds were added to each well of the 96-well plates. Chemicals were dissolved in dimethyl sulfoxide (DMSO, stock) and diluted in culture medium (1% DMSO) before adding to the culture. After 48 h incubation, the sulforhodamine B assay was used for cell density determination with slight modifications[22]–[26]. The Probits were used for the calculation of IC50 values. The reported IC50 were the averages of three independent screening (SD ≤ 10%)[27].
(§2) Two series of compounds synthesized (4a–p and 5a–f) were evaluated for their cytotoxicity against three human cancer cell lines, including SW620 (colon cancer), PC3 (prostate cancer), NCI-H23 (lung cancer), using SRB method as described previously[22] with slight modifications[23]–[26].

PC3 (prostate cancer) = experiment: SRB cytotoxicity assay, PC3; format: cell-based; settings: Homo sapiens, 48 h incubation, mean ± SEM of 3 independent experiments
Excerpt: as §1, §2

NCI-H23 (lung cancer) = experiment: SRB cytotoxicity assay, NCI-H23; format: cell-based; settings: Homo sapiens, 48 h incubation, mean ± SEM of 3 independent experiments
Excerpt: as §1, §2

U937 cells = experiment: Annexin V-FITC/PI apoptosis assay; format: cell-based, human; settings: U937, 50 µM, 24 h
Method: The Annexin V-FITC/PI dual staining assay was used to determine the percentage of apoptotic cells. U937 cells (5 × 10^5/mL per well) were plated in 6-well culture plates and allowed to grow for 24 h. In our first experiment, we examined the effects of 4f, 4h, 4n, 4o, 4p, and PAC-1 on apoptosis at 50 µM. In the second experiment, we examined the dose-dependent effect of 4o at 5, 10, and 30 µM and PAC-1 at 30 µM on apoptosis. The cells were treated with compounds for 24 h, and then harvested. The harvested cells were washed twice with ice-cold PBS and incubated in the dark at room temperature in […] of 1 × binding buffer containing 1 µL Annexin V-FITC and […] PI. After 15 min incubation, cells were analyzed for percentage undergoing apoptosis using a FACScalibur flow cytometer (BD Biosciences). The data were processed using Cell Quest Pro software (BD Biosciences).
Figure 5 Apoptosis (Annexin V/PI) analysis of cells after treatment with some compounds. U937 cells were treated with compounds (50 µM) for 24 h. The harvested cells were incubated with Annexin V-FITC and PI and analyzed by using flow cytometry. Ten thousand cells were acquired (n = 3). UN untreated, VH vehicle (DMSO. 0.1%). Representative dot plots (A). Live cells, left down in dot plot. Early apoptotic cells, right down. Necrotic cells, left up, Late apoptotic cells, right up. Bar graph of late apoptotic cells (B). p values were calculated using one-way ANOVA in GraphPad Software (San Diego, CA, USA). *p < 0.01 vs VH control. TEXT PRINTED IN THE PICTURE: (A) PAC-1: 10.40%; 29.30%; 12.70% | (A) 4f: 0.52%; 6.05%; 5.41% | (A) 4h: 0.89%; 13.20%; 7.67% | (A) 4n: 0.44%; 6.83%; 5.73% | (A) 4o: 0.67%; 17.30%; 8.17% | (A) 4p: 1.60%; 13.00%; 5.86% DOUBTS OF THE COPYIST ABOUT THIS PICTURE: The quadrant percentages are in small italic print over the dot plots, so 3, 5, 6, 8 and 9 cannot always be told apart. All values given are best readings. / PAC-1: 10.40%, 29.30% and 12.70% are best readings (29.30 could be 28.30) / 4f: 0.52%, 6.05% and 5.41% are best readings (6.05 could be 6.06 or 8.05) / 4h: 0.89%, 13.20% and 7.67% are best readings (0.89 could be 0.86 or 0.69) / 4n: 0.44%, 6.83% and 5.73% are best readings (6.83 could be 6.63 or 6.88) / 4o: 0.67%, 17.30% and 8.17% are best readings (8.17 could be 6.17) / 4p: 1.60%, 13.00% and 5.86% are best readings (5.86 could be 5.88 or 5.66) / The picture prints no measure for the percentages; only their quadrant position tells them apart. They are listed upper left, upper right, lower right. / The plots UN (0.70%, 2.31%, 3.03%) and VH (1.75%, 2.43%, 3.57%) are controls, not substances, and are left out of the lines.
Figure 6 Apoptosis (Annexin V/PI) analysis of cells after treatment with different concentrations of compound 4o. U937 cells were treated with compound 4o at 5, 10 and 30 µM or PAC-1 (30 µM) for 24 h. The harvested cells were incubated with Annexin V-FITC and PI and analyzed by using flow cytometry. Ten thousand cells were acquired (n = 3). UN untreated, VH vehicle (DMSO. 0.1%). Representative dot plots (A). Live cells, left down in dot plot. Early apoptotic cells, right down. Necrotic cells, left up, Late apoptotic cells, right up. Bar graph of late apoptotic cells (B). p values were calculated using one-way ANOVA in GraphPad Software (San Diego, CA, USA). *p < 0.01 vs VH control.

[2] = test system: U937 human lymphoma cells; experiment: Cell cycle analysis (PI, flow cytometry); format: cell-based; settings: 50 µM, 24 h
Method: U937 human lymphoma cells (5 × 10^5/mL per well) were plated in 6-well culture plates and allowed to grow for 24 h. In our first experiment, we examined the effects of 4f, 4h, 4n, 4o, 4p, and PAC-1 on cell cycles at 50 µM. In the second experiment, we examined the dose-dependent effect of 4o at 5, 10, and 30 µM and PAC-1 at 30 µM on cell cycles. The cells were treated with compounds for 24 h, and then harvested. The harvested cells were washed twice with ice-cold PBS, fixed in 75% ice-cold ethanol, and stained with propidium iodide (PI) in the presence of RNase at room temperature for 30 min. The stained cells were analyzed for DNA content using a FACScalibur flow cytometer (BD Biosciences, San Jose, CA, USA) and the data were processed using Cell Quest Pro software (BD Biosciences).
(§3) Figure 3 Cell cycle analysis after treatment with some compounds. U937 human lymphoma cells were treated with compounds (50 µM) for 24 h. The harvested cells were stained with propidium iodide (PI) in the presence of RNase and then were analyzed for DNA content by using flow cytometry. Ten thousand cells were acquired (n = 3). UN untreated, VH vehicle (DMSO. 0.1%). Representative histograms (A) and bar graphs (B) are shown. p values were calculated using one-way ANOVA in GraphPad Software (San Diego, CA, USA). *p < 0.01 vs VH control.
as §3, with “Figure 4” for “Figure 3”, “analysis under” for “analysis after”, “with different concentrations of compound 4o.” for “with some compounds.”, “with compound 4o at 5, 10 and 30 µM or PAC-1 (30” for “with compounds (50”

Row | SMILES | IC50 [1] [µM] | IC50 (SW620 (colon cancer)) [µM] | melting point [°C] | IC50 (PC3 (prostate cancer)) [µM] | IC50 (NCI-H23 (lung cancer)) [µM] | Induction of apoptosis (Annexin V-FITC/PI) (U937 cells) | Effect on cell cycle distribution [2] | Apoptotic effects compared among the representative compounds (U937 cells)
1 | O=C(CN1C(=O)Cc2ccccc21)N/N=C/c1ccccc1O [Compound 4f, (E)-N'-(2-Hydroxybenzylidene)-2-(2-oxoindolin-1-yl)acetohydrazide] | 23.2 ± 0.26 | 4.77 ± 0.53 | 173 to 174 | 7.34 ± 0.04 | 4.3 ± 0.41 | induced early, and more substantially, late apoptosis | accumulated U937 cells in the S phase | 
2 | C=CCc1cccc(/C=N/NC(=O)CN2C(=O)Cc3ccccc32)c1O [Compound 4h, (E)-N'-(3-Allyl-2-hydroxybenzylidene)-2-(2-oxoindolin-1-yl)acetohydrazide] | 15.1 ± 0.93 | 4.21 ± 0.17 | 185 to 186 | 5.65 ± 0.19 | 3.05 ± 0.22 | induced early, and more substantially, late apoptosis | accumulated U937 cells in the S phase | more prominent
3 | O=C(CN1C(=O)Cc2cc(F)ccc21)N/N=C/c1ccccc1O [Compound 4n, (E)-N'-(2-Hydroxybenzylidene)-2-(5-fluoro-2-oxoindolin-1-yl)acetohydrazide] | 21 ± 0.51 | 4.72 ± 0.75 | 173 to 174 | 5.08 ± 0.26 | 3.7 ± 0.4 | induced early, and more substantially, late apoptosis | accumulated U937 cells in the S phase | 
4 | C=CCc1cccc(/C=N/NC(=O)CN2C(=O)Cc3cc(F)ccc32)c1O [Compound 4p, (E)-N'-(3-Allyl-2-hydroxybenzylidene)-2-(5-fluoro-2-oxoindolin-1-yl)acetohydrazide] | 15.7 ± 0.46 | 3.65 ± 0.23 | 194 to 195 | 5.11 ± 0.08 | 2.7 ± 0.15 | induced early, and more substantially, late apoptosis | accumulated U937 cells in the S phase | more prominent
